From patent US12338256B2, “Aza-tetracyclic oxazepine compounds and uses thereof” (Genentech, Inc., priority 2022, dated 2025)

Tests used:
[1] = tested on: HPAC (homozygous mutant KRAS G12D human pancreatic cell line); assay: KRAS 3D-Cell Proliferation Assay, HPAC (Example 503); type: cell-based; details: Homo sapiens, HPAC, 168 h, HPAC 3D culture, 7 days, CellTiter-Glo 3D; read-out: Prolif HPAC 3D ATP IC50
In short: (§1)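 KRAS G12D homozygous pancreatic lines and KRAS wild-type lung lines grown as 3D cultures in ultra-low-attachment wells in RPMI-1640/10% FBS, dosed after overnight with compound dilution series (0.3% DMSO final) for 7 days at 37 °C. ATP read by CellTiter-Glo 3D luminescence; IC50 from 4-parameter Hill fit, normalized to DMSO and 1 μM staurosporine.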

[2] = tested on: H1975 (KRAS wild type human lung adenocarcinoma cell line); assay: KRAS 3D-Cell Proliferation Assay, H1975 (Example 503); type: cell-based; details: Homo sapiens, NCI-H1975, 168 h, H1975 3D culture, 7 days, CellTiter-Glo 3D; read-out: Prolif H1975 3D ATP IC50
In short: as §1

| Structure (SMILES) | IC50 [1] | IC50 [2] |
| --- | --- | --- |
| Cc1c(F)c(N)cc(-c2nc3c4c(nc(OC[C@@H]5CC[C@@H]6C[C@@H](C(=O)N(C)C)CCN65)nc4c2F)N2C[C@H]4CC[C@H](N4)[C@H]2[C@H](C)O3)c1C(F)(F)F (single isomer, unassigned) [133 (isomer 1)] | 26.7 nM | 2630 nM |
| C[C@@H]1Oc2nc(N(C)c3ccc(F)c(N)c3)c(F)c3nc(OC[C@@]45CCCN4C[C@H](F)C5)nc(c23)N2C[C@H]3CC[C@H](N3)[C@@H]12 [Compound 193, 4-fluoro-N^1-((5S,5aS,6S,9R)-1-fluoro-12-(((2R,7aS)-2-fluorotetrahydro-1H-pyrrolizin-7a(5H)-yl)methoxy)-5-methyl-5a,6,7,8,9,10-hexahydro-5H-4-oxa-3,10a,11,13,14-pentaaza-6,9-methanonaphtho[1,8-ab]heptalen-2-yl)-N^1-methylbenzene-1,3-diamine] | 2000 nM | 20000 nM |
| Cc1nc(N)cc(-c2nc3c4c(nc(OCC5(CN6CCO[C@H](C)C6)CC5)nc4c2F)N2C[C@H]4CC[C@H](N4)[C@H]2[C@H](C)O3)c1C(F)(F)F [Compound 213, 4-((5S,5aS,6S,9R)-1-Fluoro-5-methyl-12-((1-(((R)-2-methylmorpholino)methyl)cyclopropyl)methoxy)-5a,6,7,8,9,10-hexahydro-5H-4-oxa-3,10a,11,13,14-pentaaza-6,9-methanonaphtho[1,8-ab]heptalen-2-yl)-6-methyl-5-(trifluoromethyl)pyridin-2-amine] | 1.25 nM | 295 nM |
| Cc1c(F)c(N)cc(-c2nc3c4c(nc(OC[C@@]56CCCN5C[C@H](F)C6)nc4c2F)N2C[C@H]4CC[C@H](NC4)[C@H]2CO3)c1C(F)(F)F [Compound 236, 2-Fluoro-5-((5aS,6S,9S)-1-fluoro-12-(((2R,7aS)-2-fluorotetrahydro-1H-pyrrolizin-7a(5H)-yl)methoxy)-5a,6,7,8,9,10-hexahydro-5H-4-oxa-3,10a,11,13,15-pentaaza-6,9-ethanonaphtho[1,8-ab]heptalene-2-yl)-3-methyl-4-(trifluoromethyl)aniline] | 2000 nM | 14500 nM |
| Cc1cc(N)c(Cl)c(-c2nc3c4c(nc(OC[C@@H]5CC[C@H]6COCCN65)nc4c2F)N2C[C@H]4CC[C@H](N4)[C@H]2[C@H](C)O3)c1C(F)(F)F [Compound 103, 2-Chloro-3-((5S,5aS,6S,9R)-1-fluoro-12-(((6S,8aS)-hexahydro-1H-pyrrolo[2,1-c][1,4]oxazin-6-yl)methoxy)-5-methyl-5a,6,7,8,9,10-hexahydro-5H-4-oxa-3,10a,11,13,14-pentaaza-6,9-methanonaphtho[1,8-ab]heptalen-2-yl)-5-methyl-4-(trifluoromethyl)aniline] | 9.29 nM | 3460 nM |
| Cc1c(F)c(N)cc(-c2nc3c4c(nc(OCC56CCCN5CC(F)C6)nc4c2F)N2CCNCC2C(C)O3)c1C(F)(F)F (single isomer, unassigned) [235 (isomer 1)] | 2420 nM | 4340 nM |
| Cc1c(F)c(N)cc(-c2nc3c4c(nc(OCC56COC(CN5C)C6)nc4c2F)N2C[C@H]4CC[C@H](N4)[C@H]2[C@H](C)O3)c1C(F)(F)F [Compound 132, 2-Fluoro-5-((5S,5aS,6S,9R)-1-fluoro-5-methyl-12-((5-methyl-2-oxa-5-azabicyclo[2.2.1]heptan-4-yl)methoxy)-5a,6,7,8,9,10-hexahydro-5H-4-oxa-3,10a,11,13,14-pentaaza-6,9-methanonaphtho[1,8-ab]heptalen-2-yl)-3-methyl-4-(trifluoromethyl)aniline] | 70.4 nM | 14200 nM |
| Cc1c(F)c(N)cc(-c2nc3c4c(nc(OC[C@@]56CCCN5C[C@H](F)C6)nc4c2F)N2C[C@H]4CC[C@H](N4)C2C(C(F)F)O3)c1C(F)(F)F (single isomer, unassigned) [238 (isomer 1)] | 2000 nM | 13500 nM |
| Cc1nc(N)cc(-c2nc3c4c(nc(OCC5(CN6CC(C(F)F)C6)CC5)nc4c2F)N2C[C@H]4CC[C@H](N4)[C@H]2[C@H](C)O3)c1C(F)(F)F [Compound 274, 4-((5S,5aS,6S,9R)-12-((1-((3-(difluoromethyl)90eptalene-1-yl)methyl)cyclopropyl)methoxy)-1-fluoro-5-methyl-5a,6,7,8,9,10-hexahydro-5H-4-oxa-3,10a,11,13,14-pentaaza-6,9-methanonaphtho[1,8-ab]heptalene-2-yl)-6-methyl-5-(trifluoromethyl)pyridin-2-amine] | 7.55 nM | 1070 nM |
| Cc1nc(N)c(F)c(-c2nc3c4c(nc(OCC5(CN6C[C@@H]7C[C@H]6CO7)CC5)nc4c2F)N2C[C@H]4CC[C@H](N4)[C@H]2[C@H](C)O3)c1C(F)(F)F [Compound 222, 4-((5S,5aS,6S,9R)-12-((1-(((1S,4S)-2-Oxa-5-azabicyclo[2.2.1]heptan-5-yl)methyl)cyclopropyl)methoxy)-1-fluoro-5-methyl-5a,6,7,8,9,10-hexahydro-5H-4-oxa-3,10a,11,13,14-pentaaza-6,9-methanonaphtho[1,8-ab]heptalene-2-yl)-3-fluoro-6-methyl-5-(trifluoromethyl)pyridin-2-amine] | 5.76 nM | 1480 nM |
| C[C@@H]1Oc2nc(-c3cc(N)c(F)c(F)c3C(F)(F)F)c(F)c3nc(OCC45CCN4CC(F)(F)C5)nc(c23)N2C[C@H]3CC[C@H](N3)[C@@H]12 (stereo partly drawn) [Compound 155, 5-((5S,5aS,6S,9R)-12-((3,3-difluoro-1-azabicyclo[3.2.0]heptan-5-yl)methoxy)-1-fluoro-5-methyl-5a,6,7,8,9,10-hexahydro-5H-4-oxa-3,10a,11,13,14-pentaaza-6,9-methanonaphtho[1,8-ab]heptalen-2-yl)-2,3-difluoro-4-(trifluoromethyl)aniline] | 8.84 nM | 4750 nM |
| CO[C@@H]1CCN(CC2(COc3nc4c5c(nc(-c6cc(N)nc(C)c6C(F)(F)F)c(F)c5n3)O[C@@H](C)[C@@H]3[C@@H]5CC[C@H](CN43)N5)CC2)C[C@@H]1F [Compound 275, 4-((5S,5aS,6S,9R)-1-fluoro-12-((1-(((3S,4R)-3-fluoro-4-methoxypiperidin-1-yl)methyl)cyclopropyl)methoxy)-5-methyl-5a,6,7,8,9,10-hexahydro-5H-4-oxa-3,10a,11,13,14-pentaaza-6,9-methanonaphtho[1,8-ab]heptalene-2-yl)-6-methyl-5-(trifluoromethyl)pyridin-2-amine] | 3.29 nM | 5180 nM |
| Cc1c(F)c(N)cc(-c2nc3c4c(nc(OC[C@@]56CCCN5C[C@H](F)C6)nc4c2F)N2CCNC[C@H]2C(C)O3)c1C(F)(F)F (single isomer, unassigned) [235 (isomer 2)] | 136 nM | 262 nM |
| COC1(CF)CN(CC2(COc3nc4c5c(nc(-c6cc(N)nc(C)c6C(F)(F)F)c(F)c5n3)O[C@@H](C)[C@@H]3[C@@H]5CC[C@H](CN43)N5)CC2)C1 [Compound 272] | 4.58 nM | 5480 nM |
| Cc1c(F)c(N)cc(-c2nc3c4c(nc(OC[C@]56COC[C@H]5CCN6C)nc4c2F)N2C[C@H]4CC[C@H](N4)[C@H]2[C@H](C)O3)c1C(F)(F)F (single isomer, unassigned) [134 (isomer 1)] | 8.59 nM | 2550 nM |
| C[C@@H]1Oc2nc(-c3cccc4ccc(N)nc34)c(F)c3nc(OC[C@@]45CCCN4C[C@H](F)C5)nc(c23)N2C[C@H]3CC[C@H](N3)[C@@H]12 [Compound 114, 8-((5S,5aS,6S,9R)-1-Fluoro-12-(((2R,7aS)-2-fluorotetrahydro-1H-pyrrolizin-7a(5H)-yl)methoxy)-5-methyl-5a,6,7,8,9,10-hexahydro-5H-4-oxa-3,10a,11,13,14-pentaaza-6,9-methanonaphtho[1,8-ab]heptalen-2-yl)quinolin-2-amine] | 2000 nM | 20000 nM |
| Cc1c(F)c(N)c(F)c(-c2nc3c4c(nc(OC[C@@]56CCCN5C[C@H](F)C6)nc4c2F)N2C[C@H]4CC[C@H](N4)[C@H]2[C@H](C)O3)c1CC(F)F [Compound 175, 4-(2,2-Difluoroethyl)-2,6-difluoro-3-((5S,5aS,6S,9R)-1-fluoro-12-(((2R,7aS)-2-fluorotetrahydro-1H-pyrrolizin-7a(5H)-yl)methoxy)-5-methyl-5a,6,7,8,9,10-hexahydro-5H-4-oxa-3,10a,11,13,14-pentaaza-6,9-methanonaphtho[1,8-ab]heptalen-2-yl)-5-methylaniline] | 19.6 nM | 2340 nM |
| Cc1nc(N)c(F)c(-c2nc3c4c(nc(OCC56CCN5CC(F)(F)C6)nc4c2F)N2C[C@H]4CC[C@H](N4)[C@H]2[C@H](C)O3)c1C(F)(F)F (stereo partly drawn) [Compound 220, 4-((5S,5aS,6S,9R)-12-((3,3-Difluoro-1-azabicyclo[3.2.0]heptan-5-yl)methoxy)-1-fluoro-5-methyl-5a,6,7,8,9,10-hexahydro-5H-4-oxa-3,10a,11,13,14-pentaaza-6,9-methanonaphtho[1,8-ab]heptalene-2-yl)-3-fluoro-6-methyl-5-(trifluoromethyl)pyridin-2-amine] | 11.8 nM | 20000 nM |
| Cc1cc(-c2nc3c4c(nc(OC[C@@]56CCCN5C[C@H](F)C6)nc4c2F)N2C[C@H]4CC[C@H](N4)[C@H]2[C@H](C)O3)c(F)c(N)n1 [Compound 177, 3-Fluoro-4-((5S,5aS,6S,9R)-1-fluoro-12-(((2R,7aS)-2-fluorotetrahydro-1H-pyrrolizin-7°(5H)-yl)methoxy)-5-methyl-5°,6,7,8,9,10-hexahydro-5H-4-oxa-3,10°,11,13,14-pentaaza-6,9-methanonaptho[1,8-ab]heptalen-2-yl)-6-methylpyridin-2-amine] | 4450 nM | 20000 nM |
| Cc1c(F)c(N)cc(-c2nc3c4c(nc(OCC5CCC6CC(C(=O)N(C)C)CCN56)nc4c2F)N2CC4CCC(N4)C2C(C)O3)c1C(F)(F)F (single isomer, unassigned) [133 (isomer 4)] | 14.1 nM | 2080 nM |
